Tests used:
Format in all cases: in vivo
Amaranthus retroflexus [1] = test: Preemergence herbicidal activity (Example 67); details: pre, 800 g/ha; for herbicide rating, AMARE: rated about 1-3 weeks after treatment
How it was run: (§1)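 Cups filled with a horticultural substrate (peat, volcanic clay, bark residues, polyamide) mixed 1:3 with loamy sand were sprayed on the soil surface with compound at 800g/ha. Plants were then grown on greenhouse benches and evaluated roughly 1-3 weeks later.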

Ipomoea hederacea [2] = test: Preemergence herbicidal activity (Example 67); details: pre, 800 g/ha; for herbicide rating, IPOHE: rated about 1-3 weeks after treatment
How it was run: as §1

Chenopodium album [3] = test: Preemergence herbicidal activity (Example 67); details: pre, 800 g/ha; for herbicide rating, CHEAL: rated about 1-3 weeks after treatment
How it was run: as §1

Veronica persica [4] = test: Preemergence herbicidal activity (Example 67); details: pre, 800 g/ha; for herbicide rating, VERPE: rated about 1-3 weeks after treatment
How it was run: as §1

Galium aparine [5] = test: Preemergence herbicidal activity (Example 67); details: pre, 800 g/ha; for herbicide rating, GALAP: rated about 1-3 weeks after treatment
How it was run: as §1

Abutilon theophrasti [6] = test: Preemergence herbicidal activity (Example 67); details: pre, 800 g/ha; for herbicide rating, ABUTH: rated about 1-3 weeks after treatment
How it was run: as §1

Zea mays [7] = test: Preemergence herbicidal activity (Example 67); details: pre, 800 g/ha; for herbicide rating, ZEAMX: rated about 1-3 weeks after treatment
How it was run: as §1

Helianthus annuus [8] = test: Preemergence herbicidal activity (Example 67); details: pre, 800 g/ha; for herbicide rating, HELAN: rated about 1-3 weeks after treatment
How it was run: as §1

Alopecurus myosuroides [9] = test: Preemergence herbicidal activity (Example 67); parameters: herbicide rating, ALOMY: scale not given here; details: pre, 800 g/ha; for herbicide rating, ALOMY: rated about 1-3 weeks after treatment
How it was run: as §1

Triticum aestivum [10] = test: Preemergence herbicidal activity (Example 67); parameters: herbicide rating, TRZAW: scale not given here; details: pre, 800 g/ha; for herbicide rating, TRZAW: rated about 1-3 weeks after treatment
How it was run: as §1

Amaranthus retroflexus [11] = test: Postemergence herbicidal activity (Example 67); details: pos, 800 g/ha; for herbicide rating, AMARE: rated after 10-21 days
How it was run: (§2)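 Test compound is dissolved in acetone with 0.5% TRITON X-155 and diluted with water. It is then sprayed at 800g/ha (400 L/ha, 3 bar) onto 3-6 week old plants. The plants are kept in the greenhouse and rated after 10-21 days.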

Hordeum vulgare [12] = test: Postemergence herbicidal activity (Example 67); details: pos, 800 g/ha; for herbicide rating, HORVW: rated after 10-21 days
How it was run: as §2

Ipomoea hederacea [13] = test: Postemergence herbicidal activity (Example 67); details: pos, 800 g/ha; for herbicide rating, IPOHE: rated after 10-21 days
How it was run: as §2

Chenopodium album [14] = test: Postemergence herbicidal activity (Example 67); details: pos, 800 g/ha; for herbicide rating, CHEAL: rated after 10-21 days
How it was run: as §2

Veronica persica [15] = test: Postemergence herbicidal activity (Example 67); details: pos, 800 g/ha; for herbicide rating, VERPE: rated after 10-21 days
How it was run: as §2

Galium aparine [16] = test: Postemergence herbicidal activity (Example 67); details: pos, 800 g/ha; for herbicide rating, GALAP: rated after 10-21 days
How it was run: as §2

Alopecurus myosuroides [17] = test: Postemergence herbicidal activity (Example 67); details: pos, 800 g/ha; for herbicide rating, ALOMY: rated after 10-21 days
How it was run: as §2

Abutilon theophrasti [18] = test: Postemergence herbicidal activity (Example 67); details: pos, 800 g/ha; for herbicide rating, ABUTH: rated after 10-21 days
How it was run: as §2

Triticum aestivum [19] = test: Postemergence herbicidal activity (Example 67); details: pos, 800 g/ha; for herbicide rating, TRZAW: rated after 10-21 days
How it was run: as §2

Zea mays [20] = test: Postemergence herbicidal activity (Example 67); details: pos, 800 g/ha; for herbicide rating, ZEAMX: rated after 10-21 days
How it was run: as §2

Helianthus annuus [21] = test: Postemergence herbicidal activity (Example 67); details: pos, 800 g/ha; for herbicide rating, HELAN: rated after 10-21 days
How it was run: as §2

Setaria viridis [22] = test: Postemergence herbicidal activity (Example 67); details: pos, 800 g/ha; for herbicide rating, SETVI: rated after 10-21 days
How it was run: as §2

Hordeum vulgare [23] = test: Preemergence herbicidal activity (Example 67); parameters: herbicide rating, HORVW: scale not given here; details: pre, 800 g/ha; for herbicide rating, HORVW: rated about 1-3 weeks after treatment
How it was run: as §1

Setaria viridis [24] = test: Preemergence herbicidal activity (Example 67); parameters: herbicide rating, SETVI: scale not given here; details: pre, 800 g/ha; for herbicide rating, SETVI: rated about 1-3 weeks after treatment
How it was run: as §1

## CC(NC(=O)c1nsc(-c2ccccc2F)n1)c1cccs1 (racemic) [Example 57, (R/S)-5-(2-Fluorophenyl)-[1,2,4]thiadiazole-3-carboxylic acid, [1-(2-thienyl)ethyl]amide]
Amaranthus retroflexus [1]
  AMA RE rating: 4 (30-44%)
Ipomoea hederacea [2]
  IPO HE rating: 0
Chenopodium album [3]
  CHE AL rating: 1 (1-5%)
Veronica persica [4]
  VER PE rating: 0
Galium aparine [5]
  GAL AP rating: 0
Abutilon theophrasti [6]
  ABU TH rating: 0
Zea mays [7]
  ZEA MX rating: 0
Helianthus annuus [8]
  HEL AN rating: 0
Alopecurus myosuroides [9]
  ALO MY rating: 3 (16-29%)
Triticum aestivum [10]
  TRZ AW rating: 2 (6-15%)
Amaranthus retroflexus [11]
  AMA RE rating: 7 (80-90%)
Hordeum vulgare [12]
  HOR VW rating: 4 (30-44%)
Ipomoea hederacea [13]
  IPO HE rating: 7 (80-90%)
Chenopodium album [14]
  CHE AL rating: 4 (30-44%)
Veronica persica [15]
  VER PE rating: 6 (65-79%)
Galium aparine [16]
  GAL AP rating: 7 (80-90%)
Alopecurus myosuroides [17]
  ALO MY rating: 4 (30-44%)
Abutilon theophrasti [18]
  ABU TH rating: 9 (100% effect)
Triticum aestivum [19]
  TRZ AW rating: 3 (16-29%)
Zea mays [20]
  ZEA MX rating: 5 (45-64%)
Helianthus annuus [21]
  HEL AN rating: 8 (91-99%)
Setaria viridis [22]
  SET VI rating: 9 (100% effect)
Hordeum vulgare [23]
  HOR VW rating: 0
Setaria viridis [24]
  SET VI rating: 2 (6-15%)

## COc1ccc(-c2nsc(C(=O)NC3CCCc4ccccc43)n2)cc1 (racemic) [Example 54]
Amaranthus retroflexus [1]
  AMA RE rating: 0
Ipomoea hederacea [2]
  IPO HE rating: 0
Chenopodium album [3]
  CHE AL rating: 0
Veronica persica [4]
  VER PE rating: 0
Galium aparine [5]
  GAL AP rating: 0
Abutilon theophrasti [6]
  ABU TH rating: 0
Zea mays [7]
  ZEA MX rating: 0
Helianthus annuus [8]
  HEL AN rating: 0
Alopecurus myosuroides [9]
  ALO MY rating: 0
Triticum aestivum [10]
  TRZ AW rating: 0
Amaranthus retroflexus [11]
  AMA RE rating: 0
Hordeum vulgare [12]
  HOR VW rating: 3 (16-29%)
Ipomoea hederacea [13]
  IPO HE rating: 2 (6-15%)
Chenopodium album [14]
  CHE AL rating: 2 (6-15%)
Veronica persica [15]
  VER PE rating: 0
Galium aparine [16]
  GAL AP rating: 3 (16-29%)
Alopecurus myosuroides [17]
  ALO MY rating: 2 (6-15%)
Abutilon theophrasti [18]
  ABU TH rating: 2 (6-15%)
Triticum aestivum [19]
  TRZ AW rating: 1 (1-5%)
Zea mays [20]
  ZEA MX rating: 4 (30-44%)
Helianthus annuus [21]
  HEL AN rating: 4 (30-44%)
Setaria viridis [22]
  SET VI rating: 3 (16-29%)
Hordeum vulgare [23]
  HOR VW rating: 0
Setaria viridis [24]
  SET VI rating: 0

## CC(NC(=O)c1nc(-c2ccc(Cl)cc2)ns1)c1cccs1 (racemic) [Example 26]
Amaranthus retroflexus [1]
  herbicide rating, AMARE: 0
Ipomoea hederacea [2]
  herbicide rating, IPOHE: 0
Chenopodium album [3]
  herbicide rating, CHEAL: 3 (16-29%)
Veronica persica [4]
  herbicide rating, VERPE: 2 (6-15%)
Galium aparine [5]
  herbicide rating, GALAP: 0
Abutilon theophrasti [6]
  herbicide rating, ABUTH: 0
Zea mays [7]
  herbicide rating, ZEAMX: 0
Helianthus annuus [8]
  herbicide rating, HELAN: 0
Alopecurus myosuroides [9]
  herbicide rating, ALOMY: 0
Triticum aestivum [10]
  herbicide rating, TRZAW: 0
Amaranthus retroflexus [11]
  herbicide rating, AMARE: 6 (65-79%)
Hordeum vulgare [12]
  herbicide rating, HORVW: 3 (16-29%)
Ipomoea hederacea [13]
  herbicide rating, IPOHE: 6 (65-79%)
Chenopodium album [14]
  herbicide rating, CHEAL: 5 (45-64%)
Veronica persica [15]
  herbicide rating, VERPE: 4 (30-44%)
Galium aparine [16]
  herbicide rating, GALAP: 5 (45-64%)
Alopecurus myosuroides [17]
  herbicide rating, ALOMY: 2 (6-15%)
Abutilon theophrasti [18]
  herbicide rating, ABUTH: 5 (45-64%)
Triticum aestivum [19]
  herbicide rating, TRZAW: 2 (6-15%)
Zea mays [20]
  herbicide rating, ZEAMX: 4 (30-44%)
Helianthus annuus [21]
  herbicide rating, HELAN: 7 (80-90%)
Setaria viridis [22]
  herbicide rating, SETVI: 5 (45-64%)
Hordeum vulgare [23]
  herbicide rating, HORVW: 0
Setaria viridis [24]
  herbicide rating, SETVI: 0

## CCCCc1nsc(C(=O)NC(C)c2cccs2)n1 (racemic) [Example 25]
Amaranthus retroflexus [1]
  herbicide rating, AMARE: 0
Ipomoea hederacea [2]
  herbicide rating, IPOHE: 0
Chenopodium album [3]
  herbicide rating, CHEAL: 6 (65-79%)
Veronica persica [4]
  herbicide rating, VERPE: 4 (30-44%)
Galium aparine [5]
  herbicide rating, GALAP: 0
Abutilon theophrasti [6]
  herbicide rating, ABUTH: 0
Zea mays [7]
  herbicide rating, ZEAMX: 0
Helianthus annuus [8]
  herbicide rating, HELAN: 0
Alopecurus myosuroides [9]
  herbicide rating, ALOMY: 0
Triticum aestivum [10]
  herbicide rating, TRZAW: 0
Amaranthus retroflexus [11]
  herbicide rating, AMARE: 3 (16-29%)
Hordeum vulgare [12]
  herbicide rating, HORVW: 3 (16-29%)
Ipomoea hederacea [13]
  herbicide rating, IPOHE: 5 (45-64%)
Chenopodium album [14]
  herbicide rating, CHEAL: 6 (65-79%)
Veronica persica [15]
  herbicide rating, VERPE: 3 (16-29%)
Galium aparine [16]
  herbicide rating, GALAP: 6 (65-79%)
Alopecurus myosuroides [17]
  herbicide rating, ALOMY: 4 (30-44%)
Abutilon theophrasti [18]
  herbicide rating, ABUTH: 6 (65-79%)
Triticum aestivum [19]
  herbicide rating, TRZAW: 2 (6-15%)
Zea mays [20]
  herbicide rating, ZEAMX: 0
Helianthus annuus [21]
  herbicide rating, HELAN: 7 (80-90%)
Setaria viridis [22]
  herbicide rating, SETVI: 8 (91-99%)
Hordeum vulgare [23]
  herbicide rating, HORVW: 0
Setaria viridis [24]
  herbicide rating, SETVI: 0

## CC(NC(=O)c1nc(-c2cccc(F)c2)ns1)c1cccs1 (racemic) [Example 43]
Amaranthus retroflexus [1]
  AMA RE rating: 0
Ipomoea hederacea [2]
  IPO HE rating: 2 (6-15%)
Chenopodium album [3]
  CHE AL rating: 4 (30-44%)
Veronica persica [4]
  VER PE rating: 2 (6-15%)
Galium aparine [5]
  GAL AP rating: 2 (6-15%)
Abutilon theophrasti [6]
  ABU TH rating: 0
Zea mays [7]
  ZEA MX rating: 0
Helianthus annuus [8]
  HEL AN rating: 0
Alopecurus myosuroides [9]
  ALO MY rating: 0
Triticum aestivum [10]
  TRZ AW rating: 0
Amaranthus retroflexus [11]
  AMA RE rating: 0
Hordeum vulgare [12]
  HOR VW rating: 2 (6-15%)
Ipomoea hederacea [13]
  IPO HE rating: 2 (6-15%)
Chenopodium album [14]
  CHE AL rating: 4 (30-44%)
Veronica persica [15]
  VER PE rating: 2 (6-15%)
Galium aparine [16]
  GAL AP rating: 2 (6-15%)
Alopecurus myosuroides [17]
  ALO MY rating: 1 (1-5%)
Abutilon theophrasti [18]
  ABU TH rating: 1 (1-5%)
Triticum aestivum [19]
  TRZ AW rating: 2 (6-15%)
Zea mays [20]
  ZEA MX rating: 0
Helianthus annuus [21]
  HEL AN rating: 3 (16-29%)
Setaria viridis [22]
  SET VI rating: 3 (16-29%)
Hordeum vulgare [23]
  HOR VW rating: 0
Setaria viridis [24]
  SET VI rating: 0

## C[C@H](NC(=O)c1nsc(-c2cccc(C(F)(F)F)c2)n1)c1ccccc1 [Example 42]
Amaranthus retroflexus [1]
  AMA RE rating: 0
Ipomoea hederacea [2]
  IPO HE rating: 0
Chenopodium album [3]
  CHE AL rating: 5 (45-64%)
Veronica persica [4]
  VER PE rating: 2 (6-15%)
Galium aparine [5]
  GAL AP rating: 2 (6-15%)
Abutilon theophrasti [6]
  ABU TH rating: 0
Zea mays [7]
  ZEA MX rating: 0
Helianthus annuus [8]
  HEL AN rating: 0
Alopecurus myosuroides [9]
  ALO MY rating: 0
Triticum aestivum [10]
  TRZ AW rating: 0
Amaranthus retroflexus [11]
  AMA RE rating: 0
Hordeum vulgare [12]
  HOR VW rating: 2 (6-15%)
Ipomoea hederacea [13]
  IPO HE rating: 2 (6-15%)
Chenopodium album [14]
  CHE AL rating: 3 (16-29%)
Veronica persica [15]
  VER PE rating: 0
Galium aparine [16]
  GAL AP rating: 0
Alopecurus myosuroides [17]
  ALO MY rating: 1 (1-5%)
Abutilon theophrasti [18]
  ABU TH rating: 0
Triticum aestivum [19]
  TRZ AW rating: 2 (6-15%)
Zea mays [20]
  ZEA MX rating: 0
Helianthus annuus [21]
  HEL AN rating: 3 (16-29%)
Setaria viridis [22]
  SET VI rating: 5 (45-64%)
Hordeum vulgare [23]
  HOR VW rating: 0
Setaria viridis [24]
  SET VI rating: 0
